Tested on: L6 rat myoblasts
Assay: OCR Seahorse assay (oxygen consumption rate, mitochondrial uncoupling)
Details: for Emax at 200 µM: L6, read-out: % of BAM15 OCR, L6 myoblasts; for Emax at 200 µM / % of BAM15 OCR: integrated area under OCR dose curve above baseline relative to BAM15 of same experiment
[1] = Rattus norvegicus, NA = No Activity, highest tested concentration 200 μM
[2] = L6 myoblasts, NA = No Activity, highest tested concentration 200 μM
[3] = OCR in L6 myoblasts, NA = No Activity, highest tested concentration 200 μM

Protocol: With 7 and 9 derivatives in hand, we screened for mitochondrial uncoupling activity as a function of oxygen consumption rate (OCR). […] OCR was measured using an Agilent Seahorse XF24 or XFe96 Analyzer (Agilent Technologies, Santa Clara, CA). L6 myoblasts were seeded in a Seahorse 24 or 96-well tissue culture plate at a density of 3.5 × 10^4 cells/well. The cells were then allowed to adhere overnight. […] Compounds were injected during the assay, and OCR was measured using 2 min measurement periods. Cells were treated with a single drug concentration per well and measured over a 90 min period. Two wells were used per condition and, where applicable, results from multiple plates were averaged together. The first three measurements after injection for each concentration were averaged to produce a dose curve. […] AUC values were also calculated using the same software.

| Compound | EC50 (Rattus norvegicus, L6) | Emax at 200 µM [1] | other results |
| --- | --- | --- | --- |
| CC(C)(C)c1ccc(Nc2cnc3nonc3c2O)cc1 [7e, 6-((4-(tert-Butyl)phenyl)amino)-[1,2,5]oxadiazolo[3,4-b]pyridin-7-ol] | 2 ± 0.4 µM | 7% |  |
| Oc1c(Nc2ccc(F)cc2)cnc2nonc12 [7o, 6-((4-Fluorophenyl)amino)-[1,2,5]oxadiazolo[3,4-b]pyridin-7-ol] | > 100 µM | 32% |  |
| Oc1c(Nc2ccccc2Cl)cnc2nonc12 [7p, 6-((2-Chlorophenyl)amino)-[1,2,5]oxadiazolo[3,4-b]pyridin-7-ol] | 27 ± 1.9 µM | 69% |  |
| CCc1ccc(Nc2cnc3nonc3c2O)cc1 [7c, 6-((4-Ethylphenyl)amino)-[1,2,5]oxadiazolo[3,4-b]pyridin-7-ol] | 14 ± 1.7 µM | 50% |  |
| 6-((4-Butoxyphenyl)amino)-[1,2,5]oxadiazolo[3,4-b]pyridin-7-ol [7f] |  |  | % of BAM15 OCR [2]: 20%; EC50 [3]: 6 µM |
| Oc1c(Nc2ccc(-c3ccccc3F)cc2)cnc2nonc12 [7ak, 6-((2′-Fluoro-[1,1′-biphenyl]-4-yl)amino)-[1,2,5]oxadiazolo[3,4-b]pyridin-7-ol] |  |  | uncoupling (OCR) activity in words (L6 myoblasts): not tolerated |
| CC(C)(C#N)c1ccc(Nc2cnc3nonc3c2O)cc1 [7g, 2-(4-((7-Hydroxy-[1,2,5]oxadiazolo[3,4-b]pyridin-6-yl)amino)phenyl)-2-methylpropanenitrile] | > 100 µM | 10% |  |
| Oc1c(Nc2ccc(F)nc2)cnc2nonc12 [7k, 6-((6-Fluoropyridin-3-yl)amino)-[1,2,5]oxadiazolo[3,4-b]pyridin-7-ol] |  |  | uncoupling (OCR) activity in words (L6 myoblasts): inactive |
| Oc1c(Nc2cccc(F)c2F)cnc2nonc12 [7t, 6-((2,3-Difluorophenyl)amino)-[1,2,5]oxadiazolo[3,4-b]pyridin-7-ol] | 64 ± 3.3 µM | 60% |  |
| Oc1c(Nc2cccc(C(F)(F)F)c2)cnc2nonc12 [7r, 6-((3-(Trifluoromethyl)phenyl)amino)-[1,2,5]oxadiazolo[3,4-b]pyridin-7-ol] | 22 ± 1.8 µM | 48% |  |
| Oc1c(Nc2ccc(-c3ccc(C(F)(F)F)cc3)cc2)cnc2nonc12 [7aq, 6-((4′-(Trifluoromethyl)-[1,1′-biphenyl]-4-yl)amino)-[1,2,5]oxadiazolo[3,4-b]pyridin-7-ol] |  |  | uncoupling (OCR) activity in words (L6 myoblasts): not tolerated; cellular toxicity in OCR assay (L6 myoblasts, at higher concentrations): exhibited toxicity |
| Oc1c(-c2cccs2)cnc2nonc12 [9g, 6-(Thiophen-2-yl)-[1,2,5]oxadiazolo[3,4-b]pyridin-7-ol] | 40 ± 0.3 µM | 36% | uncoupling (OCR) activity in words (L6 myoblasts): poor activity |
| Oc1c(-c2ccc(-c3ccc(F)cc3)cc2)cnc2nonc12 [9h, 6-(4′-Fluoro-[1,1′-biphenyl]-4-yl)-[1,2,5]oxadiazolo[3,4-b]pyridin-7-ol] |  |  | uncoupling (OCR) activity in words (L6 myoblasts): inactive |
| Oc1c(Nc2ccc3ccccc3c2)cnc2nonc12 [7ax, 6-(Naphthalen-2-ylamino)-[1,2,5]oxadiazolo[3,4-b]pyridin-7-ol] | 13 ± 1.2 µM | 48% |  |
| Oc1c(Nc2cc(F)ccc2F)cnc2nonc12 [7v, 6-((2,5-Difluorophenyl)amino)-[1,2,5]oxadiazolo[3,4-b]pyridin-7-ol] | 64 ± 5.3 µM | 69% |  |
| Oc1c(Nc2ccc(-c3ccccc3)cc2F)cnc2nonc12 [7ah, 6-((3-Fluoro-[1,1′-biphenyl]-4-yl)amino)-[1,2,5]oxadiazolo[3,4-b]pyridin-7-ol] | 2 ± 0.5 µM | 10% |  |
| Oc1c(Nc2cccc(C(F)(F)F)c2F)cnc2nonc12 [7ab, 6-((2-Fluoro-3-(trifluoromethyl)phenyl)amino)-[1,2,5]oxadiazolo[3,4-b]pyridin-7-ol] | 43 ± 5.2 µM | 71% |  |

| Compound | EC50 (Rattus norvegicus, L6) | Emax at 200 µM [1] | other results |
| --- | --- | --- | --- |
| Oc1c(Nc2cc(F)cc(C(F)(F)F)c2)cnc2nonc12 [7ag, 6-((3-Fluoro-5-(trifluoromethyl)phenyl)amino)-[1,2,5]oxadiazolo[3,4-b]pyridin-7-ol] | 40 ± 0.9 µM | 38% |  |
| Oc1c(Nc2c(F)cccc2C(F)(F)F)cnc2nonc12 [7ad, 6-((2-Fluoro-6-(trifluoromethyl)phenyl)amino)-[1,2,5]oxadiazolo[3,4-b]pyridin-7-ol] | 28 ± 3.9 µM | 55% |  |
| Oc1c(Nc2cc(C(F)(F)F)ccc2F)cnc2nonc12 [7ac, 6-((2-Fluoro-5-(trifluoromethyl)phenyl)amino)-[1,2,5]oxadiazolo[3,4-b]pyridin-7-ol] | 11 ± 6.7 µM | 55% |  |
| Oc1c(Nc2cc(C(F)(F)F)c(F)cc2F)cnc2nonc12 [7ae, 6-((2,4-Difluoro-5-(trifluoromethyl)phenyl)amino)-[1,2,5]oxadiazolo[3,4-b]pyridin-7-ol] | 40 ± 4.5 µM | 48% |  |
| Oc1c(Nc2c(F)cccc2F)cnc2nonc12 [7w, 6-((2,6-Difluorophenyl)amino)-[1,2,5]oxadiazolo[3,4-b]pyridin-7-ol] | 52 ± 8.8 µM | 54% |  |
| Oc1c(Nc2ccc(SC(F)(F)F)cc2)cnc2nonc12 [7h, 6-((4-((Trifluoromethyl)thio)phenyl)amino)-[1,2,5]oxadiazolo[3,4-b]pyridin-7-ol] | 6 ± 0.4 µM | 38% |  |
| 6-([1,1′-Biphenyl]-2-ylamino)-[1,2,5]oxadiazolo[3,4-b]pyridin-7-ol [7aj] |  |  | % of BAM15 OCR [2]: 20%; EC50 [3]: 6 ± 1.2 µM |
| Oc1c(Nc2cc(F)ccc2C(F)(F)F)cnc2nonc12 [7af, 6-((5-Fluoro-2-(trifluoromethyl)phenyl)amino)-[1,2,5]oxadiazolo[3,4-b]pyridin-7-ol] | 25 ± 12 µM | 54% |  |
| Oc1c(Nc2ccc(F)cc2F)cnc2nonc12 [7u, 6-((2,4-Difluorophenyl)amino)-[1,2,5]oxadiazolo[3,4-b]pyridin-7-ol] | 40 ± 1.9 µM | 83% |  |
| Oc1c(Nc2ccccc2F)cnc2nonc12 [7m, 6-((2-Fluorophenyl)amino)-[1,2,5]oxadiazolo[3,4-b]pyridin-7-ol] | 32 ± 1.8 µM | 69% | increase of BAM15 uncoupling capability compared with the nonsubstituted aniline (7m versus 7a): 72% |
| Oc1c(Nc2ccccc2)cnc2nonc12 [7a, 6-(Phenylamino)-[1,2,5]oxadiazolo[3,4-b]pyridin-7-ol] | 59 ± 3.4 µM | 40% |  |
| Oc1c(-c2cccc(Cl)c2)cnc2nonc12 [9c, 6-(3-Chlorophenyl)-[1,2,5]oxadiazolo[3,4-b]pyridin-7-ol] | 25 ± 3.1 µM | 61% |  |
| Oc1c(Nc2ccc(F)c(F)c2F)cnc2nonc12 [7y, 6-((2,3,4-Trifluorophenyl)amino)-[1,2,5]oxadiazolo[3,4-b]pyridin-7-ol] | 44 ± 3.6 µM | 68% |  |
| Oc1c(Nc2ccc(-c3ccc(C(F)(F)F)nc3)cc2)cnc2nonc12 [7ar, 6-((4-(6-(Trifluoromethyl)pyridin-3-yl)phenyl)amino)-[1,2,5]oxadiazolo[3,4-b]pyridin-7-ol] | 7 ± 1.9 µM | 17% |  |
| Oc1c(-c2ccc(Cl)cc2)cnc2nonc12 [9e, 6-(4-Chlorophenyl)-[1,2,5]oxadiazolo[3,4-b]pyridin-7-ol] | 12 ± 0.6 µM | 52% |  |
| Oc1c(-c2ccc(C(F)(F)F)nc2)cnc2nonc12 [7l, 6-(6-(Trifluoromethyl)pyridin-3-yl)-[1,2,5]oxadiazolo[3,4-b]pyridin-7-ol] |  |  | uncoupling (OCR) activity in words (L6 myoblasts): inactive |

From paper PMC11647902, “Design, Synthesis, and Biological Evaluation of [1,2,5]Oxadiazolo[3,4-b]pyridin-7-ol as Mitochondrial Uncouplers for the Treatment of Obesity and Metabolic Dysfunction-Associated Steatohepatitis” (Journal of Medicinal Chemistry, 2024)
